Assays:
[1] = test system: HEK293sieSTAT3(wt); assay: drug sensitivity score (DSS), viability CellTiter-Glo (DSS (dimensionless)); higher = more growth inhibition; extreme values may be limits of the assay; details: 72 h; STAT3 variant: wild type
Summary of the method: (§1)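 Compounds were acoustically pre-plated in 384-well plates at 5 concentrations spaced by 10-fold dilutions, and HEK293 cells overexpressing wild-type or mutant STAT3 and carrying a STAT3-dependent luciferase reporter were added at 100,000 cells/ml in 20 μl. After 72 hours at 37°C and 5% CO2, the plates were read on a PHERAstar FS for CellTox Green fluorescence (485/520 nm) and then CellTiter-Glo luminescence. A drug sensitivity score derived from dose-response curve area was calculated in Breeze from values normalised to negative and positive control wells.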

[2] = test system: HEK293sieSTAT3(Y640F); assay: as above; details: 72 h; STAT3 variant: Y640F (constitutively active)
Summary of the method: as §1

[3] = test system: HEK293sieSTAT3(wt); assay: drug sensitivity score (DSS), cytotoxicity CellTox Green (DSS (dimensionless)); higher = more cytotoxic; extreme values may be limits of the assay; details: 72 h; STAT3 variant: wild type
Summary of the method: as §1

[4] = test system: HEK293sieSTAT3(Y640F); assay: as above; details: 72 h; STAT3 variant: Y640F (constitutively active)
Summary of the method: as §1

C/C(=C\c1csc(C)n1)[C@@H]1C[C@@H]2O[C@]2(C)CCC[C@H](C)[C@H](O)[C@@H](C)C(=O)C(C)(C)[C@@H](O)CC(=O)N1 [Ixabepilone] (top concentration tested 1000 nM)
drug sensitivity score [1]: 8.23
drug sensitivity score [2]: 6.8
drug sensitivity score [3]: 3.56
drug sensitivity score [4]: 0.83

Cc1cc(C)c(/C=C2\C(=O)Nc3ccccc32)[nH]1 [Semaxanib] (top concentration tested 10000 nM)
drug sensitivity score [1]: 2.08
drug sensitivity score [2]: 0
drug sensitivity score [3]: 8.57
drug sensitivity score [4]: 3.22

O=C(Nc1cccc(Nc2ncc(Br)c(NCCc3cnc[nH]3)n2)c1)N1CCCC1 [BX-912] (top concentration tested 10000 nM)
drug sensitivity score [1]: 6.67
drug sensitivity score [2]: 5.58
drug sensitivity score [3]: 0
drug sensitivity score [4]: 0

CCOc1cc2ncc(C#N)c(Nc3ccc(F)c(Cl)c3)c2cc1NC(=O)/C=C/CN(C)C [Pelitinib] (top concentration tested 2500 nM)
drug sensitivity score [1]: 9.21
drug sensitivity score [2]: 6.05
drug sensitivity score [3]: 3.88
drug sensitivity score [4]: 1.79

Cc1ccc(-c2cc(C(F)(F)F)nn2-c2ccc(S(N)(=O)=O)cc2)cc1 [Celecoxib] (top concentration tested 10000 nM)
drug sensitivity score [1]: 4.14
drug sensitivity score [2]: 0.58
drug sensitivity score [3]: 0.02
drug sensitivity score [4]: 0

COc1ccc(Cl)c(Nc2nc3ccccc3nc2NS(=O)(=O)c2cccc(NC(=O)C(C)(C)N)c2)c1 [Pilaralisib] (top concentration tested 2500 nM)
drug sensitivity score [1]: 3.92
drug sensitivity score [2]: 6.22
drug sensitivity score [3]: 0
drug sensitivity score [4]: 0

CC/C(=C(\c1ccc(O)cc1)c1ccc(OCCN(C)C)cc1)c1ccccc1 [4-hydroxytamoxifen] (top concentration tested 10000 nM)
drug sensitivity score [1]: 7.39
drug sensitivity score [2]: 6.34
drug sensitivity score [3]: 7.36
drug sensitivity score [4]: 6.81

C[C@@H](Oc1ccc2[nH]nc(/C=C/c3cnn(CCO)c3)c2c1)c1c(Cl)cncc1Cl (top concentration tested 1000 nM)
drug sensitivity score [1]: 5.39
drug sensitivity score [2]: 6.64
drug sensitivity score [3]: 0
drug sensitivity score [4]: 0

COc1ccc(S(=O)(=O)Nc2cccnc2Nc2ccc(O)cc2)cc1 [ABT-751] (top concentration tested 10000 nM)
drug sensitivity score [1]: 14.3
drug sensitivity score [2]: 11.4
drug sensitivity score [3]: 9.49
drug sensitivity score [4]: 2.68

O=C1CN2Cc3c(ccc(Cl)c3Cl)N=C2N1 [Anagrelide] (top concentration tested 10000 nM)
drug sensitivity score [1]: 0.64
drug sensitivity score [2]: 0.64
drug sensitivity score [3]: 0.62
drug sensitivity score [4]: 0.01

COc1cc2ncnc(Nc3ccc(F)c(Cl)c3)c2cc1OCCCN1CCOCC1 [Gefitinib] (top concentration tested 10000 nM)
drug sensitivity score [1]: 3.96
drug sensitivity score [2]: 1.88
drug sensitivity score [3]: 1.5
drug sensitivity score [4]: 0

O=C(/C=C\n1cnc(-c2cc(C(F)(F)F)cc(C(F)(F)F)c2)n1)NNc1cnccn1 [Selinexor] (top concentration tested 10000 nM)
drug sensitivity score [1]: 30.8
drug sensitivity score [2]: 26.9
drug sensitivity score [3]: 26.4
drug sensitivity score [4]: 14.5

O=C(CCCCCCC(=O)Nc1ccc([C@H]2O[C@@H](CSc3nc(-c4ccccc4)c(-c4ccccc4)o3)C[C@@H](c3ccc(CO)cc3)O2)cc1)NO [Tubacin] (top concentration tested 10000 nM)
drug sensitivity score [1]: 5.53
drug sensitivity score [2]: 4.63
drug sensitivity score [3]: 2.57
drug sensitivity score [4]: 0.48

NC(=O)c1ccc(I)c([N+](=O)[O-])c1 [Iniparib] (top concentration tested 10000 nM)
drug sensitivity score [1]: 0
drug sensitivity score [2]: 0
drug sensitivity score [3]: 0
drug sensitivity score [4]: 0

CN(C)c1cc2c(cc1Sc1nc3c(N)nccc3n1CCNCC(C)(C)C)OCO2 [CUDC-305] (top concentration tested 10000 nM)
drug sensitivity score [1]: 24.6
drug sensitivity score [2]: 20
drug sensitivity score [3]: 17.6
drug sensitivity score [4]: 7.26

CN1CCC(COc2cnc(-c3cccc(Cn4nc(-c5cccc(C#N)c5)ccc4=O)c3)nc2)CC1 (top concentration tested 1000 nM)
drug sensitivity score [1]: 0
drug sensitivity score [2]: 0
drug sensitivity score [3]: 0
drug sensitivity score [4]: 0

COc1cc(N2CCC(N3CCN(C)CC3)CC2)ccc1Nc1ncc(Cl)c(Nc2ccccc2P(C)(C)=O)n1 [Brigatinib] (top concentration tested 2500 nM)
drug sensitivity score [1]: 8.02
drug sensitivity score [2]: 7.58
drug sensitivity score [3]: 1.71
drug sensitivity score [4]: 0.69

CC(C)n1nc(-c2ccc3oc(N)nc3c2)c2c(N)ncnc21 [MLN-0128] (top concentration tested 1000 nM)
drug sensitivity score [1]: 18.7
drug sensitivity score [2]: 15
drug sensitivity score [3]: 1.73
drug sensitivity score [4]: 0
